From US7537906B2, “Apoptosis inducer and method of screening for a substance inhibiting acylated homoserine lactone” (priority 2003, dated 2009)

Experiments:
CaCo-2 cells = assay: Effects of kinase inhibitors on N-(3-oxododecanoyl)-L-homoserine lactone-dependent apoptosis, viability by Trypan blue staining; format: cell-based, human; settings: 30 μM alone, 12 hours, control 96%
Procedure: 2×10^5 CaCo-2 cells were inoculated per 3.5 cm dish, cultured for 12 hours in the presence of 10% serum, washed twice with PBS (-), and then synchronously cultured in a serum-free medium for 24 hours. Pretreatment with various inhibitors (50 μM PD98059 and 20 μM SB203580) or DMSO was carried out for 30 minutes. Then 30 μM N-(3-oxododecanoyl)-L-homoserine lactone or DMSO was added, the cells were cultured for 12 hours, and then viability was measured by Trypan blue staining.

[1] = test system: PARP (poly-ADP ribose polymerase); assay: PARP activity by Western blot (cleaved PARP) in CaCo-2 cells; format: cell-based, human
Procedure: The activities of caspase (caspase-3 and caspase-9) and PARP (poly-ADP ribose polymerase) were measured in a manner similar to those in Examples 1 and 2 by Western blot analysis using each of anti-activated (cleaved) caspase antibodies, that is, an anti-cleaved caspase-3 antibody, an anti-cleaved caspase-9 antibody (D330) and an anti-cleaved PARP antibody (D214).
N-(3-oxododecanoyl)-L-homoserine lactones with final concentrations of 30 μM and 100 μM were each added to cultured CaCo-2 cells. Caspase-3, caspase-9 and PARP activities were analyzed over time by Western blot at 0 hours, 1 hour, 2 hours, 4 hours, 6 hours, 8 hours and 10 hours after culture. […] Whereas at 30 μM, activated caspase-3 began to be detected 1 hour after stimulation and the activity lasted until 4 hours after stimulation, at 100 μM the activity peaked at 6 hours and lasted until 10 hours after stimulation. Cleaved caspase-9 and cleaved PARP were detected by reprobing each membrane.
Next, 3 hours of reaction with N-(3-oxododecanoyl)-L-homoserine lactone was carried out at concentrations of 0, 1, 10, 30, and 100 μM, and then caspase and PARP activities were measured.

IL-12 = settings: mouse macrophage culture system; cited from earlier work

**Q.** What does the source list for `CCCCCCCCCC(=O)CC(=O)N[C@H]1CCOC1=O` [N-(3-oxododecanoyl)-L-homoserine lactone]?
**A.** viability (CaCo-2 cells): 49%; cleaved PARP over time ([1]; 30 μM and 100 μM): behavior similar to that of cleaved caspase-9; concentration at which cleaved PARP was detected ([1]; 3 hours of reaction, 0, 1, 10, 30 and 100 μM): ≥ 30 µM; IL-12 production (IL-12): promotes
